From publication PMC4001449, “Thienoquinolines as Novel Disruptors of the PKCε/RACK2 Protein–Protein Interaction” (Journal of Medicinal Chemistry, 2014)

Legend:
PKCε/RACK2 interaction = target: T1, PKCε/RACK2 interaction (Homo sapiens, UniProt P35606); experiment: PKCε/RACK2 in vitro binding assay (ELISA-based); conditions: 25 μM solution, Figure 2A
T1 sequence (P35606 1-906): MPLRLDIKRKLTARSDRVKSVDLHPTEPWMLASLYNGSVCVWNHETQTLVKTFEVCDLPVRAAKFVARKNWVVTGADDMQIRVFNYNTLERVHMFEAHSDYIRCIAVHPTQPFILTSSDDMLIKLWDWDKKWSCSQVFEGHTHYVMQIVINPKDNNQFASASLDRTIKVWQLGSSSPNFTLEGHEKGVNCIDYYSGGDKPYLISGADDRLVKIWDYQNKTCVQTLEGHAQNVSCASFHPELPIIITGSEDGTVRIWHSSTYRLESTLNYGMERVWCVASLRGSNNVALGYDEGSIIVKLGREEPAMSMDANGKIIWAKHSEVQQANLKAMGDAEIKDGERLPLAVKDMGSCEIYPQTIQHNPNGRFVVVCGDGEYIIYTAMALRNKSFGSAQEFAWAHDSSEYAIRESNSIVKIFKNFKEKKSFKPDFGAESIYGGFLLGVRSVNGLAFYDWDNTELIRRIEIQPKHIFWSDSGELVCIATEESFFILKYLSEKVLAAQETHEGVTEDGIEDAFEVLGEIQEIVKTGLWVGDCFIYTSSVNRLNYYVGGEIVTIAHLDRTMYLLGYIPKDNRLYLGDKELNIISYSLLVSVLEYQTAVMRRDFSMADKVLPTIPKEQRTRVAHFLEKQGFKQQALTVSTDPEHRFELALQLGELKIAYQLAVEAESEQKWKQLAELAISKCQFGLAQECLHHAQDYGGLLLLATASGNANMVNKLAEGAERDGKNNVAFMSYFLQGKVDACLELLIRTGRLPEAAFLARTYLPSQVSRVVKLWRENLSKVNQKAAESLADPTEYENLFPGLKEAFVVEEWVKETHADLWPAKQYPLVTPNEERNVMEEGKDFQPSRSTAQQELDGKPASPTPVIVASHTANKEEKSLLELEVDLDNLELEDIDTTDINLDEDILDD
Procedure: Recombinant RACK2 tagged with maltose-binding protein (RACK2-MBP) was purified on columns with amylose resin (New England Biolabs, Ipswich, MA) as described by the manufacturer. The recombinant protein was analyzed by Coomassie Blue staining and Western blotting after SDS–PAGE. Aliquots were stored in liquid nitrogen. The interaction between PKCε and RACK2 was measured using an ELISA-based assay. The 96-well EIA/RIA high binding plates (Costar) were coated with 100 ng of recombinant PKCε (ProQinase, Freiburg, Germany) in buffer A (20 mM Tris-HCl/100 mM NaCl, pH 7.5) at 4 °C on a shaker with gentle agitation overnight. The plate was washed twice with 225 μL/well buffer A. After blocking of unspecific binding sites with 225 μL of sterile-filtered 3% bovine serum albumin (BSA; Sigma-Aldrich, St. Louis, MO) in buffer A at room temperature for 3 h, the plate was washed twice with 225 μL of this buffer. PKCε was left untreated or activated by addition of 60 μg/mL phosphatidylserine (Sigma-Aldrich) and 100 nM TPA (Sigma-Aldrich) in a volume of 50 μL of buffer A for 10 min at 30 °C. […] Color development was measured on a plate reader at a wavelength of 420 nm.

NUAK1 = target: T2, NUAK1 (Homo sapiens, UniProt O60285); experiment: Kinase profiling (Dundee), NUAK1; format: biochemical; conditions: 25 μM solution
T2 sequence (O60285 1-661): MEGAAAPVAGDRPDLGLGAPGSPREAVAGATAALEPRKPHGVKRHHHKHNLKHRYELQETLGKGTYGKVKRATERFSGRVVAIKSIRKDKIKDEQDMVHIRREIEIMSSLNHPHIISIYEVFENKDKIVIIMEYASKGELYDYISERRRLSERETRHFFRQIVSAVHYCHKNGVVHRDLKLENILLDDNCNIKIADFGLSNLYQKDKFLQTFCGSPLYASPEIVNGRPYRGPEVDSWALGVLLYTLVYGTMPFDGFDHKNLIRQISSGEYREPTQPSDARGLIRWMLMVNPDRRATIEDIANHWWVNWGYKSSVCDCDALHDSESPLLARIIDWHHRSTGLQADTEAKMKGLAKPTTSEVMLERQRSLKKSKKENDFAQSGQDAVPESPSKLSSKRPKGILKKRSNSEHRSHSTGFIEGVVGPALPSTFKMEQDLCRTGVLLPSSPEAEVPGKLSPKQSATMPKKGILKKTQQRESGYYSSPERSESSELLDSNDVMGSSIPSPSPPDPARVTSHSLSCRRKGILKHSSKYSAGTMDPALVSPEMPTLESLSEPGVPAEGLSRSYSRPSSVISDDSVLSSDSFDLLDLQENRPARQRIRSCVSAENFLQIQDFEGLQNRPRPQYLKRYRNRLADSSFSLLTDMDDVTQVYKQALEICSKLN

ERK1 = ERK1 (Homo sapiens, UniProt P27361); experiment: Kinase profiling (Dundee), ERK1; format: biochemical; conditions: 25 μM solution
ERK1, sequence (P27361 whole entry, species assumed): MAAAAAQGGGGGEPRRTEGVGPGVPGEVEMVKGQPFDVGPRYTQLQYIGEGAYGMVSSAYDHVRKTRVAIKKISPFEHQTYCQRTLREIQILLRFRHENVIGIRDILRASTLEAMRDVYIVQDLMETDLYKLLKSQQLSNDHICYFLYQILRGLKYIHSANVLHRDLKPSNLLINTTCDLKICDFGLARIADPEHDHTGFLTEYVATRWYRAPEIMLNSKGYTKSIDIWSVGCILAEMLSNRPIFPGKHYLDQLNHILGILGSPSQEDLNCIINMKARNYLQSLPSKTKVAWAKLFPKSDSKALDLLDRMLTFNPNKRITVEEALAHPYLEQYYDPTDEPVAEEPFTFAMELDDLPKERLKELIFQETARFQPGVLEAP

- PKCε/RACK2 interaction, % of untreated controls (PKCε/RACK2 interaction): approximately 10 % of untreated controls
- NUAK1 activity, % of control (NUAK1): 49 % of control
- ERK1 activity, % of control (ERK1): 55 % of control
SMILES: CC(=O)c1cccc(NC(=O)c2sc3nc4cc5c(cc4cc3c2N)OCCO5)c1 [Compound 8, N-(3-acetylphenyl)-9-amino-2,3-dihydro-1,4-dioxino[2,3-g]thieno[2,3-b]quinoline-8-carboxamide]
